Earlier results on one compound are cited in article PMC4946565 (Bioorganic & medicinal chemistry letters, 2016).

The data set concerns VMAT2. The following applies: selectivity VMAT2 over DAT; ref [4], [9], [10].

For `CN1[C@@H](CC(=O)c2ccccc2)CCC[C@H]1C[C@H](O)c1ccccc1` [Lobeline, lobeline], the “fold higher affinity for VMAT2 compared to DAT” value is “about 100 fold”.
